Values after ≈ are worked out from the molar mass of the structure shown.

Consider one compound from ChEMBL document CHEMBL1150712, “Plant anticancer agents, XLIII. (E,E)-7, 12-dioxo-octadeca-8, 10-dien-1-oic acid (ostopanic acid), a cytotoxic fatty acid from Ostodes Paniculata” (1987).

For the experiment, the system named is P388. Nature of the experiment: Cytotoxicity against mouse P388 cells. The format is functional. The following applies: read-out: ED50 (the source's name).

In the case of `CCCCCCC(=O)/C=C/C=C/C(=O)CCCCCC(=O)O` [OSTOPANIC ACID], the EC50 came out at 1.5 µg/mL (≈ 4.86 µM).
